Series [1] has as its system Plasmodium falciparum. The experiment in a line: NOVARTIS: Inhibition of Plasmodium falciparum 3D7 (drug-susceptible) proliferation in erythrocyte-based infection assay. In kind it is functional, organism-based. The settings on record: Plasmodium falciparum, 3D7.
Series [2] deals with Plasmodium falciparum. The experiment in a line: NOVARTIS: Inhibition of Plasmodium falciparum W2 (drug-resistant) proliferation in erythrocyte-based infection assay. It counts as functional, organism-based. The note with it: Plasmodium falciparum, W2; read-out: EC50.
Series [3] in a line: NOVARTIS: Cytotoxicity against human hepatocellular carcinoma cell line (Huh7). In kind it is toxicity, cell-based, Huh-7. The settings on record: Huh7 cells (hepatocellular carcinoma cell line).

Structures are written as SMILES. pEC50: −log10 of the molar value.

In the case of `COc1cccc2c1[C@@H](OC)[C@@]13O[C@]1(C2=O)[C@H](O)[C@@H](C)[C@](O)(C(=O)[C@@H]1O[C@H]1C)[C@H]3O`, the values for the pEC50 in series [1] and in series [2] were 6.58 and 6.65, respectively. The CC50 in series [3] was 2.82 µM.

With `CCC(c1nc2ccccc2c(=O)n1-c1ccc(F)c(Cl)c1)N(CCc1ccccc1)C(=O)COc1ccccc1` (centres undefined), the pEC50 in series [1] was 5.93; in series [2], < 6.31. Also, the CC50 in series [3] is > 6.28 µM.

In the case of `c1cncc(-c2cc(N3CCc4ccccc4C3)nc(-c3ccncc3)n2)c1`, the negative-log EC50 (pEC50) in series [1] is 6.22; in series [2], 6.10. Moreover, in series [3], the CC50 was > 10 µM.

With `COc1ccccc1N1CCN([C@@H]2CCN(Cc3cccnc3)C[C@@H]2CCC(=O)N2CCCC2)CC1`, the pEC50 was 5.96 in series [1] and 6.09 in series [2]. Also, the CC50 in series [3] was > 10 µM.

`O=C(Nc1ccc(Cl)c(C(F)(F)F)c1)NC1CC2CCC(C1)N2C1CCCC1` (centres undefined): the pEC50 in series [1] is 6.27; in series [2], 6.09. Further, the CC50 in series [3] is > 10 µM.

Turning to `CCCOc1ccc(C=Nc2ccc(S(=O)(=O)Nc3ccccn3)cc2)cc1`, the results for the pEC50 in series [1] and in series [2] were 5.85 and 6.09, respectively. For the same molecule, in series [3], the CC50 was > 10 µM.

With `CCNC(=O)NCCSc1nc(-c2ccc(OC)cc2)c(-c2ccc(OC)cc2)n1CC`, the pEC50 in series [1] is < 5.78; in series [2], < 6.09. The CC50 in series [3] was > 10 µM.

`O=C(CSc1cn(CCNC(=O)c2ccc(F)cc2)c2ccccc12)Nc1ccccc1F`: the pEC50 in series [1] is < 4.90; in series [2], < 5.09. Moreover, the cytotoxic concentration (CC50) in series [3] is > 98.9 µM.

Take `Cc1ccc2c(c1)N(CC(=O)NC1CCCCC1C)C(=O)CO2` (centres undefined): the negative logarithm of the EC50 (pEC50) in series [1] was 5.70; in series [2], < 6.09. Also, in series [3], the CC50 is > 10 µM.

For `CC(C)CNC(=O)c1cnc(NCCCN(C)C)nc1NCC1CCCCC1`, the pEC50 was 6.48 in series [1] and 6.09 in series [2]. Moreover, the CC50 in series [3] was > 10 µM.

Turning to `COC(=O)c1cccc(NC(=O)/C(=C\c2cccc([N+](=O)[O-])c2)NC(=O)c2ccccc2OC)c1`, the negative logarithm of the EC50 (pEC50) was < 5.78 in series [1] and < 6.09 in series [2]. Further, the 50% cytotoxic concentration (CC50) in series [3] was > 10 µM.

For the molecule `Cc1ccc(NC(=O)N2CCN(CCN(Cc3ccc(F)cc3)C(=O)c3ccccc3C)CC2)cc1`, the pEC50 was < 5.76 in series [1] and 6.09 in series [2]. Besides, the cytotoxic concentration (CC50) in series [3] was > 10 µM.

`O=[N+]([O-])c1ccc(-c2cn3nc(C(F)(F)F)sc3n2)cc1`: the pEC50 in series [1] is 5.98; in series [2], 6.09. In series [3], the CC50 is > 10 µM.

Regarding `O=C(CSc1nc2ccccc2c(=O)n1C1CC1)Nc1cc(C(F)(F)F)ccc1Cl`, the pEC50 was 6.14 in series [1] and 5.09 in series [2]. For the same molecule, the CC50 in series [3] was > 100 µM.

For `Cc1nc(-c2ccccc2)nc(C(=O)N2CCN(S(=O)(=O)/C=C/c3ccccc3)C(C)C2)c1C(=O)OCC(C)C` (centres undefined), the negative-log EC50 (pEC50) was 6.03 in series [1] and 6.11 in series [2]. Further, the CC50 in series [3] was > 10 µM.

Regarding `Cc1csc(NC(=O)C2c3ccccc3C(=O)N(CC(C)C)C2c2cccs2)n1` (centres undefined), the figures for the pEC50 in series [1] and in series [2] were 6.21 and 6.11, respectively. In addition, the CC50 in series [3] is > 10 µM.

For `COc1cc(NC(=O)Cn2ncc3c(=O)oc4ccccc4c32)cc(OC)c1OC`, the values for the pEC50 in series [1] and in series [2] were < 4.90 and 5.11, respectively. Also, in series [3], the CC50 was > 100 µM.

On to `Cc1ccc(S(=O)(=O)N(C)CCCNc2ccnc3cc(Cl)ccc23)cc1`, for which the pEC50 is 6.42 in series [1] and 6.50 in series [2]. Further, in series [3], half-maximal cytotoxicity (CC50) was put at 4.01 µM.

With `c1ccc2c(c1)ccc[n+]2CCCCCC[n+]1cccc2ccccc21`, the pEC50 was 6.39 in series [1] and 6.11 in series [2]. Besides, the CC50 in series [3] was > 10 µM.

On to `Cc1nc2cc(-c3ccc(F)cc3)nn2c(NCCCn2ccnc2)c1C`, for which the pEC50 in series [1] is 6.00; in series [2] it was 6.11. Also, in series [3], the CC50 is > 10 µM.

Consider `O=C1NCCN1CCNS(=O)(=O)c1cc(C(F)(F)F)cc(C(F)(F)F)c1`, for which the pEC50 is 5.92 in series [1] and 6.10 in series [2]. The CC50 in series [3] was > 10 µM.

With `CCOc1ccc(NCc2ccc(O)c3ncccc23)cc1`, the negative logarithm of the EC50 (pEC50) in series [1] is 5.12; in series [2], < 5.36. Further, the CC50 in series [3] is > 55.6 µM.

On to `COC(=O)C1=CNC=C(C(=O)OC)C1c1cc(Br)ccc1OC`, for which the pEC50 in series [1] is < 4.91; in series [2] it was 5.34. In series [3], the CC50 was > 57.8 µM.

On to `CCCCCCN(C(=O)c1ccc(CC)cc1)C(CC)c1nc2ccccc2c(=O)n1-c1cccc(Cl)c1` (centres undefined), for which the negative-log EC50 (pEC50) in series [1] and in series [2] was 6.11 throughout. Moreover, the CC50 in series [3] was > 10 µM.

On to `CC(C)CN(CC(=O)Nc1cc(C(C)(C)C)nn1-c1ccccc1)C(=O)Cc1cccs1`, for which the pEC50 in series [1] was 5.89; in series [2] it was 6.11. Further, the CC50 in series [3] was > 10 µM.

As to `COc1ccc(NC2=CC(=O)CC(c3ccccc3)C2)c(OC)c1` (centres undefined), the pEC50 in series [1] was < 4.90; in series [2], 5.11. Also, the CC50 in series [3] is > 100 µM.

For the molecule `COc1cccc(OC)c1C(=O)Oc1cccc2ccc(C)nc12`, the pEC50 was < 5.90 in series [1] and 6.10 in series [2]. For the same molecule, the CC50 in series [3] was > 10 µM.

As for `O=C(CCl)NCCCN(C(=O)Nc1ccc(Cl)c(Cl)c1)c1ccccc1`, the pEC50 in series [1] is 6.66; in series [2], 7.13. In addition, the CC50 in series [3] is > 0.931 µM.

As to `O=[N+]([O-])c1ccc(Cl)c(-c2ccc(C=NNc3nc4ccccc4[nH]3)o2)c1`, the results for the pEC50 in series [1] and in series [2] were 6.02 and 6.10, respectively. Also, the CC50 in series [3] is > 10 µM.

In the case of `COc1ccc(C=Cc2ccc3ccccc3[n+]2C)cc1`, the pEC50 in series [1] is < 5.27; in series [2], 5.10. The CC50 in series [3] was > 100 µM.

With `CCCNC(=O)c1cc(NC(=O)c2cc(C(F)(F)F)cc(C(F)(F)F)c2)ccc1N1CCCCC1`, the pEC50 is < 5.81 in series [1] and < 6.09 in series [2]. For the same molecule, in series [3], half-maximal cytotoxicity (CC50) was put at 10.2 µM.

Consider `COc1ccc(OC)c(-c2ccc(O)c(CNCCc3ccccc3F)c2)c1`, for which the negative logarithm of the EC50 (pEC50) was 5.94 in series [1] and 6.10 in series [2]. In addition, in series [3], the CC50 is > 10 µM.

Consider `CCCCCCN(C(=O)c1cccc(C(F)(F)F)c1)C(CC)c1nc2ccccc2c(=O)n1-c1ccccc1OC` (centres undefined), for which the negative logarithm of the EC50 (pEC50) in series [1] and in series [2] was 6.10 each time. Besides, in series [3], the CC50 was > 10 µM.

Turning to `COc1ccc(CCNC(=O)Cn2c(C)cc3ccccc3c2=O)cc1OC`, the values for the pEC50 in series [1] and in series [2] were < 5.81 and 6.10, respectively. For the same molecule, the 50% cytotoxic concentration (CC50) in series [3] is > 10 µM.

`COC(=O)C(Nc1ccc(Cl)c(Cl)c1)(c1cc(C)c(O)c(C)c1)C(F)(F)F` (centres undefined): the pEC50 in series [1] was < 5.86; in series [2], < 6.10. The CC50 in series [3] was > 10 µM.

On to `O=C1CC(=O)Nc2cc(S(=O)(=O)NC3CCCCCCC3)ccc2N1`, for which the pEC50 in series [1] is < 5.90; in series [2] it was < 6.10. In series [3], the CC50 is > 10 µM.

On to `Cn1c(=O)[nH]c2c(c1=O)n(C)c(=O)n2C`, for which the pEC50 in series [1] was < 6.02; in series [2] it was < 6.10. The CC50 in series [3] was > 10 µM.

In the case of `CC(=O)N(C1=C(N2CCOCC2)C(=O)c2ccccc2C1=O)c1ccc(F)cc1`, the pEC50 in series [1] is 7.89; in series [2] it was 7.85. Also, the CC50 in series [3] was determined as 0.173 µM.

Regarding `Cc1cccnc1NC(=O)CCCC(=O)O`, the pEC50 was < 5.97 in series [1] and 6.10 in series [2]. In series [3], the CC50 was > 10 µM.

As to `COc1ccc(CCNc2nc(NCCC3CCCN3C)ncc2C(=O)NCc2ccccc2)cc1OC` (centres undefined), the values for the pEC50 in series [1] and in series [2] were 5.97 and < 6.10, respectively. Moreover, in series [3], the CC50 was > 10 µM.

Regarding `Cn1c2ccccc2c2nnc(NN=Cc3ccccn3)nc21`, the pEC50 in series [1] was 6.06; in series [2], 6.10. The CC50 in series [3] was > 10 µM.

Regarding `CCCn1c(C=NNc2nc3ccccc3[nH]2)nc2ccccc21`, the figures for the pEC50 in series [1] and in series [2] were 5.25 and 5.29, respectively. The CC50 in series [3] stood at 62.8 µM.

As to `O=C(/C=C/c1ccccc1)NNC(=O)c1cccnc1`, the pEC50 was < 5.90 in series [1] and < 6.12 in series [2]. Also, the 50% cytotoxic concentration (CC50) in series [3] is > 9.45 µM.

As to `COc1ccc(-c2c[n+](-c3ccccc3)c3n2CCS3)cc1`, the pEC50 in series [1] and in series [2] was 6.11 each time. Also, in series [3], the 50% cytotoxic concentration (CC50) is > 10 µM.

Turning to `COc1cc(NC(C)CCCN(Cc2ccc(F)cc2)C(=O)CCc2ccccc2)c2ncccc2c1` (centres undefined), the pEC50 in series [1] is 5.85; in series [2], 6.44. Besides, it took 4.62 µM to reach half-maximal cytotoxicity in series [3] (CC50).

As for `CCCCc1ccc(NC(C)=O)cc1`, the pEC50 in series [1] was 6.67; in series [2], 6.48. In series [3], this molecule had a CC50 of 4.21 µM.

Consider `CC(C)CCNC(=O)C1CSC(c2ccc(F)cc2)N1C(=O)c1ccc(Cl)cc1Cl` (centres undefined), for which the pEC50 was < 4.90 in series [1] and 5.09 in series [2]. Moreover, the CC50 in series [3] is > 100 µM.

Take `CC1(C)CC(NC(=O)C(=O)NC2CC(C)(C)N(O)C(C)(C)C2)CC(C)(C)N1O`: the pEC50 in series [1] was < 5.88; in series [2], < 6.11. Also, the CC50 in series [3] was > 10 µM.

Take `CN(C)c1ccc(/C=C/c2cc(/C=C/c3ccc(N(C)C)cc3)[n+]3ccccc3n2)cc1`: the figures for the pEC50 in series [1] and in series [2] were 5.87 and 6.09, respectively. For the same molecule, in series [3], the CC50 is > 10 µM.

As for `CCCCOc1ccc(-c2nnc(-c3ccc(C)cc3)n2-c2ccccc2)cc1`, the pEC50 was < 5.92 in series [1] and < 6.11 in series [2]. Also, in series [3], the 50% cytotoxic concentration (CC50) was > 10 µM.

Take `O=C(Oc1ccccc1N1C(=O)C2C3C=CC(C3)C2C1=O)c1ccc([N+](=O)[O-])cc1` (centres undefined): the values for the pEC50 in series [1] and in series [2] were < 5.01 and 5.09, respectively. In addition, the CC50 in series [3] is > 100 µM.

On to `Cc1ccc2ncnc(Nc3cccc(C(F)(F)F)c3)c2c1`, for which the pEC50 was 6.02 in series [1] and 5.66 in series [2]. Half-maximal cytotoxicity in series [3] (CC50) was put at 27.9 µM.

As to `CC(C)c1ccc(C2N(c3ccccc3)C3(C(=O)c4ccccc4C3=O)C(c3ccc(C(C)C)cc3)C23C(=O)c2ccccc2C3=O)cc1` (centres undefined), the pEC50 in series [1] and in series [2] was 6.10 in each case. Further, the CC50 in series [3] is > 10 µM.
